Assays:
[1] = system: Ovarian TICs, 2393A ovarian; test: Ovarian tumor-initiating cell growth inhibition (Alamar Blue); format: cell-based; conditions: 144 h, 6 days, read-out: GI50 range 2393A ovarian
[2] = system: HCT116 colon cancer cells; test: Cell growth inhibition, Sulforhodamine B assay, HCT116; format: cell-based; conditions: Homo sapiens, HCT-116, 120 h, 5 days culture, SRB assay, read-out: Cell Line GI50 Range HCT116
Description: (§1) Breast cancer cells (MDA-MB-231, MDA-MB-468), colon cancer cells (HCT116, HT29) and ovarian cancer cells (PA-1, OVCAR-3) were seeded (1000 to 4000 in 80 μl per well depending on the cell growth rate) into 96 well plates 24 hours before compound overlay. Compounds were prepared as 10 mM stock solutions in 100% DMSO which were diluted with DMEM (Dulbecco's Modified Eagle's Medium) cell growth Medium (Invitrogen, Burlington, ON, Canada) containing 10% FBS (Fetal Bovine Serum) to concentrations ranging from 50 nM to 250 μM. Aliquots (20 μl) from each concentration were overlaid to 80 μl of the pre-seeded cells in the 96 well plates to make final concentrations of 10 nM to 50 μM. The cells were cultured for 5 days before the Sulforhodamine B assay (SRB) was performed to determine the compound's cell growth inhibition activity.
(§2) Sulforhodamine B (purchased from Sigma, Oakville, ON, Canada) is a water-soluble dye that binds to the basic amino acids of the cellular proteins. Thus, colorimetric measurement of the bound dye provides an estimate of the total protein mass that is related to the cell number. the cells are fixed in situ by gently aspirating off the culture media and adding 50 μl ice cold 10% Trichloroacetic Acid (TCA) per well and incubate at 4° C. for 30-60 min, The plates are washed with water five times and allowed to air dry for 5 min. Addition of 50 μl 0.4% (w/v) SRB solution in 1% (v/v) acetic acid to each well and incubatation for 30 min at RT completes the staining reaction. Following staining, plates are washed four times with 1% acetic acid to remove unbound dye and then allowed to air dry for 5 min. The stain is solubilized with 100 μl of 10 mM Tris pH 10.5 per well. Absorbance is read at 570 nm.
(§3) The percentage (%) of relative growth inhibition was calculated by comparing to DMSO treated only cells (100%). […] The GI50 was calculated using GraphPad PRISM software (GraphPad Software, Inc., San Diego, Calif., USA).

[3] = system: MDA-MB-468 breast cancer cells; test: Cell growth inhibition, Sulforhodamine B assay, MDA-MB-468; format: cell-based; conditions: Homo sapiens, 120 h, 5 days culture, SRB assay, read-out: Cell Line GI50 Range MDA-MB-468
human TTK = target: T1, human TTK (Homo sapiens, UniProt P33981); test: TTK inhibition assay (indirect ELISA); format: biochemical; conditions: GST-TTK 0.68 nM, 16 μM ATP; read-out: IC50 Ranges TTK
T1 construct: amino terminal GST fusion of full length human TTK; purchased Invitrogen
T1 sequence (P33981 1-857): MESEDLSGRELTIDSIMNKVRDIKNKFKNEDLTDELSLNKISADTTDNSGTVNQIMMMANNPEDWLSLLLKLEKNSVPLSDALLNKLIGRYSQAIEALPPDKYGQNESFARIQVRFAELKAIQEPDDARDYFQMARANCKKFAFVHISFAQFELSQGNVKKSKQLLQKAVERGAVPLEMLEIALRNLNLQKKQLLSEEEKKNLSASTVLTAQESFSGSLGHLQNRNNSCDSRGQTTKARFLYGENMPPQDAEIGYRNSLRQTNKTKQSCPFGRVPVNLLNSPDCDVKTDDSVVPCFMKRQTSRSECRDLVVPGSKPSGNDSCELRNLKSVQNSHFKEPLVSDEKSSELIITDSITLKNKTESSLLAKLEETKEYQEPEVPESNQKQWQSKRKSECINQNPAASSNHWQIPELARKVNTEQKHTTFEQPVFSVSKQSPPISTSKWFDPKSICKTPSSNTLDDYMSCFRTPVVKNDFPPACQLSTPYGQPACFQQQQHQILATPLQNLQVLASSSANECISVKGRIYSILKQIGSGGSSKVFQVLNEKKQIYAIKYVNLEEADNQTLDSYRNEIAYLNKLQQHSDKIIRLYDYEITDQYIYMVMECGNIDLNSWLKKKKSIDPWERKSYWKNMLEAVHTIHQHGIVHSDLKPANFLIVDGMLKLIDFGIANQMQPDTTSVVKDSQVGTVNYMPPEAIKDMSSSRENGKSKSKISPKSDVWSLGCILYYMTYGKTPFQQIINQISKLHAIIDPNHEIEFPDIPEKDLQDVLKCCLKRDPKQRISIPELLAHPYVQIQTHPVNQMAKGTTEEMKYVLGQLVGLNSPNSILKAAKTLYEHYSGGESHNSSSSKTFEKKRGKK

human PLK4 = target: T2, human PLK4 (Homo sapiens, UniProt O00444); test: PLK4 inhibition assay (indirect ELISA); format: biochemical; conditions: GST-PLK4 4 nM, 15 μM ATP; read-out: IC50 Ranges PLK4
T2 construct: amino terminal GST fusion of residues 1-391 of human PLK4; made in house; host or cells: E. coli
T2 sequence (O00444 1-391): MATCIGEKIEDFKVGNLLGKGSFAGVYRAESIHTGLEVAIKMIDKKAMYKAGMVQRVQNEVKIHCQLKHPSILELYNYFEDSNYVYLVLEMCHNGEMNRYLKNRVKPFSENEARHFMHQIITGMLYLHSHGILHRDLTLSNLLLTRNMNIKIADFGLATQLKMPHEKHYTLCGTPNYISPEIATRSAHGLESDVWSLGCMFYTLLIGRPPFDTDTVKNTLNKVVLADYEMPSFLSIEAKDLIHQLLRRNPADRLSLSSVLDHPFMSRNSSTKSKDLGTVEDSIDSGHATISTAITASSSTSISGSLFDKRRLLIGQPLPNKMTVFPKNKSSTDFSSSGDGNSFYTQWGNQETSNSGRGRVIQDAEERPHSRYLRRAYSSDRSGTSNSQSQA
Summary of the method: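 Dephosphorylated GST-tagged human PLK4 (residues 1-391, E. coli), 4 nM, preincubated 15 min with compound, then reacted 30 min with 15 μM ATP on MBP-coated plates (50 mM HEPES pH 7.5, 10 mM MgCl2, 0.01% Brij 35). Phospho-MBP detected by antibody ELISA at 450 nm. Tested at 10 μM or 10-point titrations; IC50 from 4-parameter logistic fit.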

Aurora B = target: T3, Aurora B (Homo sapiens, UniProt Q96GD4); test: Aurora B inhibition assay (Z-Lyte); format: biochemical; conditions: 28 nM Aurora B, 128 μM ATP; read-out: IC50 Ranges Aurora B
T3 construct: purchased Invitrogen PV3970
T3 sequence (Q96GD4 whole entry): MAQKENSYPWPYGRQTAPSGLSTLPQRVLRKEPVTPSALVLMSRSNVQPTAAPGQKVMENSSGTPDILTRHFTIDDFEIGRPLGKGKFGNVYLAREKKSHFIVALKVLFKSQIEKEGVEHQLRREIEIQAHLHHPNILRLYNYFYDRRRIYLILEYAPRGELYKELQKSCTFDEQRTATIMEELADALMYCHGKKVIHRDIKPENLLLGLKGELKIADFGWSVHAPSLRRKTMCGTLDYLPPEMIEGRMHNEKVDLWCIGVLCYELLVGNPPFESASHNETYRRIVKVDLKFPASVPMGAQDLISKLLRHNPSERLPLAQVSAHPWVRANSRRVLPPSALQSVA
Description: Aurora B inhibition was determined using the Z-Lyte assay kit from Invitrogen. The assay was performed using the recommended manufacturer's instructions with 128 μM ATP and 28 nM Aurora B (Invitrogen cat #PV3970). The % inhibition values were determined according to the manufacturer's directions and IC50 values were obtained using a non-linear 4 point logistic curve fit (XLfit4, IDBS)

[4] = system: PA-1 ovarian cancer cells; test: Cell growth inhibition, Sulforhodamine B assay, PA-1; format: cell-based; conditions: 120 h, 5 days culture, SRB assay, read-out: Cell Line GI50 Range PA-1
[5] = system: Colon tumor initiating cells (TICs), 12 colon; test: Colon tumor-initiating cell growth inhibition (Alamar Blue); format: cell-based; conditions: 216 h, 9 days, read-out: GI50 range 12 colon
Description: Materials and Methods: Non-tissue or tissure cultured treated T-75 flask and 96-well plates were purchased from VWR. Vitamin B-27 supplement, MEM NEAA (minimum essential medium non essential amino acids), sodium pyruvate, L-glutamine, N2 supplement, penicillin-streptomycin and fungizone/amphotericin B were obtained from Invitrogen. Lipid mixture, heparin and EGF were purchased from Sigma; bFGF from BD Biosciences. Colon tumor initiating cells (TICs) were routinely maintained using non-tissue cultured treated T-75 flasks in DMEM:F12 medium containing 0.2XB-27 supplement, 4 ug/ml heparin, 1XMEM NEAA, 1× sodium pyruvate, 1 mM glutamine, 10 pg/ul bFGF, 20 pg/ul EGF, 1×N2 supplement, lipid mixture, penicillin-streptomycin and fungizone/amphotericin B. Ovarian TICs were routinely maintained using tissue cultured treated T-75 flasks in DMEM:F12 medium containing 1XB-27 supplement, 4 ug/ml heparin, 20 pg/ul bFGF, 20 pg/ul EGF and penicillin-streptomycin.
Compounds described herein were dissolved in DMSO and further diluted in cell culture medium for GI50 determination. Colon TICs were trypsinized and seeded into non-tissue cultured treated 96-well plates with 4,000 cells/well. After 24 h, compound was added into the cell culture at different concentrations, and the final concentration of DMSO was adjusted to 0.1%. Cells were then cultured at 37° C. for 9 days. Ovarian TICs were trypsinized and seeded into tissue cultured treated 96-well plates with 1,000 cells/well. After 24 h, compound was added into the cell culture at different concentrations, and the final concentration of DMSO was adjusted to 0.1%. Cells were then cultured at 37° C. for 6 days. Cell viability was assessed by Alamar Blue assay: 10 ul of Alamar Blue was added into each well. After 4 hours incubation at 37° C., fluorescence was recorded at excitation 544 and emission 590. GI50 (Growth inhibition) was calculated using GraphPad Prism 4.0 software.

HT29 colon cancer cells = test: Cell growth inhibition, Sulforhodamine B assay, HT29; format: cell-based; conditions: Homo sapiens, HT-29, 120 h, 5 days culture, SRB assay, read-out: Cell Line GI50 Range HT29
Description: as §1, §2, §3

O=CN1CCC(Oc2ccc(-c3n[nH]c4ccc(C(=O)NC(c5ccccc5F)C5CC5)cc34)cc2)CC1 (stereo not shown) [Example A182, N-(cyclopropyl(2-fluorophenyl)methyl)-3-(4-((1-formylpiperidin-4-yl)oxy)phenyl)-1H-indazole-5-carboxamide]
≤ 5 µM: GI50 [1] | GI50 [2] | GI50 [3] | IC50 (human TTK) | IC50 (human PLK4) | IC50 (Aurora B) | GI50 [4] | GI50 [5]

CC1(O)CCN(c2ccc(-c3n[nH]c4ccc(NC(=O)C(c5ccsc5)N5CCCC5)cc34)cc2)CC1 (stereo not shown) [Example A89, N-(3-(4-(4-hydroxy-4-methylpiperidin-1-yl)phenyl)-1H-indazol-5-yl)-2-(pyrrolidin-1-yl)-2-(thiophen-3-yl)acetamide]
≤ 5 µM: GI50 [1] | GI50 [2] | GI50 [3] | IC50 (human TTK) | IC50 (human PLK4) | IC50 (Aurora B) | GI50 (HT29 colon cancer cells) | GI50 [4] | GI50 [5]

O=C(Nc1ccc2[nH]nc(-c3ccc(N4CCOCC4)cc3)c2c1)C(c1ccsc1)N1CCC1 (stereo not shown) [Example A172, 2-(azetidin-1-yl)-N-(3-(4-morpholinophenyl)-1H-indazol-5-yl)-2-(thiophen-3-yl)acetamide]
≤ 5 µM: GI50 [1] | GI50 [2] | GI50 [3] | IC50 (human TTK) | IC50 (human PLK4) | IC50 (Aurora B) | GI50 (HT29 colon cancer cells) | GI50 [4] | GI50 [5]

O=C(Nc1ccc2[nH]nc(-c3ccc(OC4CCN(C5COC5)CC4)cc3)c2c1)C(c1ccccc1)C1CC1 (stereo not shown) [Example A185, 2-cyclopropyl-N-(3-(4-((1-(oxetan-3-yl)piperidin-4-yl)oxy)phenyl)-1H-indazol-5-yl)-2-phenylacetamide]
≤ 5 µM: GI50 [1] | GI50 [2] | GI50 [3] | IC50 (human TTK) | IC50 (human PLK4) | IC50 (Aurora B) | GI50 [4] | GI50 [5]

CC(C)(O)C1CCN(c2ccc(-c3n[nH]c4ccc(C(=O)NC(c5ccccn5)C5CC5)cc34)cc2)CC1 (stereo not shown) [Example A180, N-(cyclopropyl(pyridin-2-yl)methyl)-3-(4-(4-(2-hydroxypropan-2-yl)piperidin-1-yl)phenyl)-1H-indazole-5-carboxamide]
≤ 5 µM: GI50 [1] | GI50 [2] | GI50 [3] | IC50 (human TTK) | IC50 (human PLK4) | IC50 (Aurora B) | GI50 [4] | GI50 [5]

O=CN1CCC(Oc2ccc(-c3n[nH]c4ccc(C(=O)NC(c5ccccn5)C5CC5)cc34)cc2)CC1 (stereo not shown) [Example A160, N-(cyclopropyl(pyridin-2-yl)methyl)-3-(4-((1-formylpiperidin-4-yl)oxy)phenyl)-1H-indazole-5-carboxamide]
≤ 5 µM: GI50 [1] | GI50 [2] | GI50 [3] | IC50 (human TTK) | IC50 (human PLK4) | IC50 (Aurora B) | GI50 (HT29 colon cancer cells) | GI50 [4] | GI50 [5]

O=CN1CCC(Oc2ccc(-c3n[nH]c4ccc(NC(=O)C(c5ccsc5)N5CCCC5)cc34)cc2)CC1 (stereo not shown) [Example A118]
≤ 5 µM: GI50 [1] | GI50 [2] | GI50 [3] | IC50 (human TTK) | IC50 (human PLK4) | IC50 (Aurora B) | GI50 (HT29 colon cancer cells) | GI50 [4] | GI50 [5]

O=C(NC(c1ccccc1)C1CC1)c1ccc2[nH]nc(-c3ccc(OC4CN(C5COC5)C4)cc3)c2c1 (stereo not shown) [Example A190, N-(cyclopropyl(phenyl)methyl)-3-(4-((1-(oxetan-3-yl)azetidin-3-yl)oxy)phenyl)-1H-indazole-5-carboxamide]
≤ 5 µM: GI50 [1] | GI50 [2] | GI50 [3] | IC50 (human TTK) | IC50 (human PLK4) | IC50 (Aurora B) | GI50 [4] | GI50 [5]

O=CN1CCC(Oc2ccc(-c3n[nH]c4ccc(C(=O)NC(c5ccsc5)C5CC5)cc34)cc2)CC1 (stereo not shown) [Example A186, N-(cyclopropyl(thiophen-3-methyl-3-yl)methyl)-3-(4-((1-formylpiperidin-4-yl)oxy)phen)-1H-indazole-5-carboxamide]
≤ 5 µM: GI50 [1] | GI50 [2] | GI50 [3] | IC50 (human TTK) | IC50 (human PLK4) | IC50 (Aurora B) | GI50 [4] | GI50 [5]

CN1CCC(Oc2ccc(-c3n[nH]c4ccc(C(=O)N[C@H](c5sccc5Cl)C5CC5)cc34)cc2)CC1 [Example A167, (S)—N-((3-chlorothiophen-2-yl)(cyclopropyl)methyl)-3-(4-((1-methylpiperidin-4-yl)oxy)phenyl)-1H-indazole-5-carboxamide]
≤ 5 µM: GI50 [1] | GI50 [2] | GI50 [3] | IC50 (human TTK) | IC50 (human PLK4) | IC50 (Aurora B) | GI50 (HT29 colon cancer cells) | GI50 [4] | GI50 [5]
